Reference: patent US6558686B1, “Method of coating medical devices with a combination of antiseptics and antiseptic coating therefor” (Baylor College of Medicine, priority 1995, dated 2003)

Legend:
[1] = system: Pseudomonas; experiment: Antimicrobial activity of coated silicone urinary catheters, initial and after 1 week in urine (Example 5); assay type: cell-based, Pseudomonas aeruginosa; settings: for Pseudomonas 1 week (antimicrobial activity of coated catheter): catheter segments incubated in urine for 1 week at 37° C.; for Pseudomonas Initial (antimicrobial activity of coated catheter): silicone urinary catheter
Experimental: (§1) A first antiseptic solution was formed by dissolving chloroxylenol (200 mg/ml) in an 85:15 solution of butyl acetate: methanol that has NaOH (5 mg/ml of methanol). A second antiseptic solution was formed by dissolving thymol (150 mg/ml) in an 85:15 solution of butyl acetate: methanol that has NaOH (5 mg/ml of methanol). A third antiseptic solution was formed by dissolving chloroxylenol (200 mg/ml) and thymol (150 mg/ml) in an 85:15 solution of butyl acetate: methanol that has NaOH (5 mg/ml of methanol). Eighteen-french silicone urinary catheters were dipped in one of the above coating solutions for 1 hour at 45° C. The catheters were allowed to dry overnight then rinsed.

[2] = system: Candida albicans; experiment: as above; assay type: cell-based; settings: for Candida albicans 1 week (antimicrobial activity of coated catheter): catheter segments incubated in urine for 1 week at 37° C.; for Candida albicans Initial (antimicrobial activity of coated catheter): silicone urinary catheter
Experimental: as §1

[3] = system: Enterococcus; experiment: as above; assay type: cell-based; settings: for Enterococcus 1 week (antimicrobial activity of coated catheter): catheter segments incubated in urine for 1 week at 37° C.; for Enterococcus Initial (antimicrobial activity of coated catheter): silicone urinary catheter
Experimental: as §1

[4] = system: S. epidermidis; experiment: as above; assay type: cell-based; settings: for S. epidermidis 1 week (antimicrobial activity of coated catheter): catheter segments incubated in urine for 1 week at 37° C.; for S. epidermidis Initial (antimicrobial activity of coated catheter): silicone urinary catheter
Experimental: as §1

[5] = system: E. coli; experiment: as above; assay type: cell-based; settings: for E. coli 1 week (antimicrobial activity of coated catheter): catheter segments incubated in urine for 1 week at 37° C.; for E. coli Initial (antimicrobial activity of coated catheter): silicone urinary catheter
Experimental: as §1

[6] = system: Staph. epidermidis; experiment: Zones of inhibition, coated stainless steel cylinders on agar (Example 1); assay type: cell-based, Staphylococcus epidermidis; settings: coated stainless steel cylinder, 18-24 hours at 37° C.
Experimental: (§2) Antiseptic coatings were applied to each of four stainless steel cylinders (0.5″ diameter×2″ length), using each of the above four antiseptic solutions, by dipping each cylinder for 1 minute at 50° C. in the respective solution.

[7] = system: Pseud. aeruginosa; experiment: as above; assay type: cell-based, Pseudomonas aeruginosa; settings: coated stainless steel cylinder, 18-24 hours at 37° C.
Experimental: as §2

[8] = system: Candida albicans; experiment: as above; assay type: cell-based; settings: coated stainless steel cylinder, 18-24 hours at 37° C.
Experimental: as §2

[9] = cited from earlier work
[10] = system: Candida albicans; experiment: Zones of inhibition, single-layer coated stainless steel cylinders (Example 4); assay type: cell-based; settings: single-layer coated stainless steel cylinder, 18-24 hours at 37° C.
Experimental: (§3) Stainless steel cylinders (0.5×2″) were dipped in one of the three antiseptic coating solutions for 1 minute at 50° C. Devices were allowed to dry for at least 4 hours, then placed into agar plates that had been freshly overlaid with one of the microorganisms shown below in Table 4. After 18-24 hours of incubation at 37° C., the following measurements of zones of inhibition were recorded.

[11] = system: P. aerug; experiment: as above; assay type: cell-based; settings: single-layer coated stainless steel cylinder, 18-24 hours at 37° C.
Experimental: as §3

[12] = system: S. epidermidis; experiment: as above; settings: single-layer coated stainless steel cylinder, 18-24 hours at 37° C.
Experimental: as §3

| Compound | Pseudomonas 1 week (antimicrobial activity of coated catheter) [1] | Pseudomonas Initial (antimicrobial activity of coated catheter) [1] | Candida albicans 1 week (antimicrobial activity of coated catheter) [2] | Candida albicans Initial (antimicrobial activity of coated catheter) [2] | Enterococcus 1 week (antimicrobial activity of coated catheter) [3] | Enterococcus Initial (antimicrobial activity of coated catheter) [3] | S. epidermidis 1 week (antimicrobial activity of coated catheter) [4] | S. epidermidis Initial (antimicrobial activity of coated catheter) [4] | E. coli 1 week (antimicrobial activity of coated catheter) [5] | E. coli Initial (antimicrobial activity of coated catheter) [5] | Zones of inhibition Staph. epidermidis [6] [m.m.] | Zones of inhibition Pseud. aeruginosa [7] [m.m.] | Zones of inhibition Candida albicans [8] [m.m.] | Solubility in acetic acid ([9]; acetic acid) | Solubility in formic acid ([9]; formic acid) | Solubility in organic solvents ([9]; organic solvents) | Zones of inhibition Candida albicans [10] [m.m.] | Zones of inhibition P. aerug [11] [m.m.] | Zones of inhibition S. epidermidis [12] [m.m.] |
| --- | --- | --- | --- | --- | --- | --- | --- | --- | --- | --- | --- | --- | --- | --- | --- | --- | --- | --- | --- |
| Cc1cc(O)cc(C)c1Cl [Chloroxylenol, 4-chloro, 3,5-dimethyl phenol] | 0 | 10 | 26 | 30 | 10 | 13 | 20 | 25 | 11 | 15 |  |  |  |  |  |  |  |  |  |
| Cc1ccc(C(C)C)c(O)c1 [Thymol, 5-methyl-2 isopropyl phenol] | 0 | 11 | 38 | 60 | 17 | 28 | 30 | 38 | 28 | 35 | 23 | 18 | 14 |  |  |  |  |  |  |
| [H]/N=C(\N/C(=N/[H])NCCCCCCNC(=N)NC(=N)Nc1ccc(Cl)cc1)Nc1ccc(Cl)cc1 [Chlorhexidine] |  |  |  |  |  |  |  |  |  |  | 31 | 28 | 26 | soluble | soluble | generally not soluble | 28 | 25 | 30 |
